The values that follow come from patent US11845760B2, “PRMT5 inhibitors” (AMGEN INC., priority 2020, dated 2023).

Experiment [1] concerns HCT116 MTAP null cells. In words: HCT116 MTAP null cell line proliferation (CellTiter-Glo cell viability, 6 days). The following applies: HCT116 MTAP null cells, 6 days of treatment, CellTiter-Glo cell viability, read-out: HCT-116 MTAP null IC50. Format: cell-based. The procedure:
(§1) To assess selective anti-proliferative activity of compounds of the invention in cells that have loss expression of MTAP, an HCT-116 isogenic cell line pair was utilized where one cell line was engineered to genetically knockout both MTAP alleles. Cell viability was then assessed in both the parent HCT-116 cell line and the MTAP null cell line after 6 days of treatment with compounds of the present invention. Selective anti-proliferative activity in the MTAP null cell line indicates MTA-cooperative inhibition of PRMT5 and ability to inhibit growth of cancer cells that have loss of MTAP.
(§2) HCT116 MTAP null and WT cells were seeded in 96-well tissue culture plates in RPMI 1640 media+10% fetal bovine serum. Plates were incubated overnight at 37° C. and 5% CO2. Cells were then treated with an 8- or 9-point serial dilution of compound, using a top concentration of 1, or 10 μM, 1:3 serial dilution steps and, a DMSO-only control. Cells were incubated in the presence of drug for 6 days. Effects on cell viability were measured with the CellTiter-Glo® Luminescent Cell Viability Assay (Promega) per manufacturer's recommendation. Assay plates were read on an EnVision™ Multilabel Reader using the Ultra-Sensitive luminescence module. IC50 values were calculated with GraphPad Prism v 5.01 using symmetrical sigmoidal dose-response least squares fit with Hill slope fixed to −1 and top constrain to 100% or GeneData Screener using a 4-parameter logistic model to fit dose response curves.
(§3) Alternatively, compounds could be assayed with a 384 well plate format:
(§4) Compounds were pre-spotted into 384 well plates with a 22-point serial dilution of compound, using a top concentration of 10 or 50 μM, 1:2 serial dilution steps and, a DMSO-only control. HCT116 MTAP null and WT cells were then seeded as above and after 6 days effects on cell viability were measured with the CellTiter-Glo® Luminescent Cell Viability Assay (Promega). Assay plates were read as above and IC50 values were calculated with GeneData Screener using a 4-parameter logistic model to fit dose response curves. The reported IC50 represents the value where the curve transits 50% of control.
Background: ATP-based viability assays read luminescence as a measure of living cells.

Experiment [2] relates to HCT116 WT cells. Briefly: HCT116 WT cell line proliferation (CellTiter-Glo cell viability, 6 days). Format: cell-based. The note with it: HCT116 WT (parent) cells, 6 days of treatment, CellTiter-Glo cell viability, read-out: HCT-116 WT IC50. The procedure:
as §1, §2, §3, §4

Where two headings read alike, the source gives them in different places.

Take `C[C@@H]1COC[C@H](c2ccc(OC(F)F)nn2)N1C(=O)c1ccc2nc(N)c3c(c2c1)COC3` (racemic) [Example 315, (4-amino-1,3-dihydrofuro[3,4-c]quinolin-8-yl)((3R,5S)-3-(6-(difluoromethoxy)-3-pyridazinyl)-5-methyl-4-morpholinyl)methanone and (4-amino-1,3-dihydrofuro[3,4-c]quinolin-8-yl)((3S,5R)-3-(6-(difluoromethoxy)-3-pyridazinyl)-5-methyl-4-morpholinyl)methanone]: the IC50 in experiment [1] is 106 nM; in experiment [2], 4750 nM.
As to `C[C@H]1COC[C@@H](c2ccc(OC(F)F)nc2)N1C(=O)c1cc2c3c(c(N)nc2cn1)COC3` (racemic) [Example 318, (4-amino-1,3-dihydrofuro[3,4-c][1,7]naphthyridin-8-yl)((3R,5S)-3-(6-(difluoromethoxy)-3-pyridinyl)-5-methyl-4-morpholinyl)methanone and (4-amino-1,3-dihydrofuro[3,4-c][1,7]naphthyridin-8-yl)((3S,5R)-3-(6-(difluoromethoxy)-3-pyridinyl)-5-methyl-4-morpholinyl)methanone], the IC50 in experiment [1] (HCT116-MTAP null, 144 h) is 82 nM; in experiment [2] (Homo sapiens, HCT-116, 144 h), 2780 nM.
The corresponding values for `CCOc1ccc([C@@H]2COC[C@H](C)N2C(=O)c2ccc3nc(N)c4c(c3c2)COC4)nn1` (racemic) [Example 319, (4-amino-1,3-dihydrofuro[3,4-c]quinolin-8-yl)((3R,5S)-3-(6-ethoxy-3-pyridazinyl)-5-methyl-4-morpholinyl)methanone and (4-amino-1,3-dihydrofuro[3,4-c]quinolin-8-yl)((3S,5R)-3-(6-ethoxy-3-pyridazinyl)-5-methyl-4-morpholinyl)methanone] are 145 nM and 5580 nM.
On to `CCOc1ccc([C@@H]2COC[C@H](C)N2C(=O)c2cc3c4c(c(N)nc3cn2)COC4)nn1` (racemic) [Example 320, (4-amino-1,3-dihydrofuro[3,4-c][1,7]naphthyridin-8-yl)((3R,5S)-3-(6-ethoxy-3-pyridazinyl)-5-methyl-4-morpholinyl)methanone and (4-amino-1,3-dihydrofuro[3,4-c][1,7]naphthyridin-8-yl)((3S,5R)-3-(6-ethoxy-3-pyridazinyl)-5-methyl-4-morpholinyl)methanone], for which the IC50 in experiment [1] (HCT116-MTAP null, 144 h) worked out at 101 nM; in experiment [2] (Homo sapiens, HCT-116, 144 h) it was 3680 nM.
The corresponding values for `CCOc1ccc([C@@H]2COC[C@H](C)N2C(=O)c2ccc3nc(N)c4c(c3c2)CO[C@@H]4C)nn1` (racemic) [Example 321, ((3R)-4-amino-3-methyl-1,3-dihydrofuro[3,4-c]quinolin-8-yl)((3R,5S)-3-(6-ethoxy-3-pyridazinyl)-5-methyl-4-morpholinyl)methanone and ((3R)-4-amino-3-methyl-1,3-dihydrofuro[3,4-c]quinolin-8-yl)((3S,5R)-3-(6-ethoxy-3-pyridazinyl)-5-methyl-4-morpholinyl)methanone] are 93 nM and 4960 nM.
Regarding `CCOc1ccc([C@@H]2COC[C@H](C)N2C(=O)c2cc3c4c(c(N)nc3cc2Cl)COC4)nn1` (racemic) [Example 322, (4-amino-7-chloro-1,3-dihydrofuro[3,4-c]quinolin-8-yl)((3R,5S)-3-(6-ethoxy-3-pyridazinyl)-5-methyl-4-morpholinyl)methanone and (4-amino-7-chloro-1,3-dihydrofuro[3,4-c]quinolin-8-yl)((3S,5R)-3-(6-ethoxy-3-pyridazinyl)-5-methyl-4-morpholinyl)methanone], the IC50 in experiment [1] (HCT116-MTAP null, 144 h) was 6 nM; in experiment [2] (Homo sapiens, HCT-116, 144 h), 279 nM.
Consider `CCOc1ccc([C@@H]2COC[C@H](C)N2C(=O)c2cc3c4c(c(N)nc3cn2)[C@@H](C)OC4)nn1` (racemic) [Example 326, ((3R)-4-amino-3-methyl-1,3-dihydrofuro[3,4-c][1,7]naphthyridin-8-yl)((3R,5S)-3-(6-ethoxy-3-pyridazinyl)-5-methyl-4-morpholinyl)methanone and ((3R)-4-amino-3-methyl-1,3-dihydrofuro[3,4-c][1,7]naphthyridin-8-yl)((3S,5R)-3-(6-ethoxy-3-pyridazinyl)-5-methyl-4-morpholinyl)methanone], for which the IC50 in experiment [1] (HCT116-MTAP null, 144 h) was 72 nM; in experiment [2] (Homo sapiens, HCT-116, 144 h) it was 2580 nM.
The corresponding values for `CCOc1ccc([C@@H]2COC[C@H](C)N2C(=O)c2cc3c4c(c(N)nc3cc2F)COC4)nn1` (racemic) [Example 327, (4-amino-7-fluoro-1,3-dihydrofuro[3,4-c]quinolin-8-yl)((3R,5S)-3-(6-ethoxy-3-pyridazinyl)-5-methyl-4-morpholinyl)methanone and (4-amino-7-fluoro-1,3-dihydrofuro[3,4-c]quinolin-8-yl)((3S,5R)-3-(6-ethoxy-3-pyridazinyl)-5-methyl-4-morpholinyl)methanone] are 43 nM and 2400 nM.
The corresponding values for `C[C@H]1COC[C@@H](c2ccc(OC(F)(F)F)cc2F)N1C(=O)c1cc2c3c(c(N)nc2cn1)COC3` (racemic) [Example 328, (4-amino-1,3-dihydrofuro[3,4-c][1,7]naphthyridin-8-yl)((3R,5S)-3-(2-fluoro-4-(trifluoromethoxy)phenyl)-5-methyl-4-morpholinyl)methanone and (4-amino-1,3-dihydrofuro[3,4-c][1,7]naphthyridin-8-yl)((3S,5R)-3-(2-fluoro-4-(trifluoromethoxy)phenyl)-5-methyl-4-morpholinyl)methanone] are 49 nM and 1000 nM.
On the same counts, the results for `C[C@H]1OCc2c1c(N)nc1ccc(C(=O)N3[C@@H](C)COC[C@H]3c3ccc(OC(F)(F)F)cc3F)cc21` (racemic) [Example 329, ((3R)-4-amino-3-methyl-1,3-dihydrofuro[3,4-c]quinolin-8-yl)((3R,5S)-3-(2-fluoro-4-(trifluoromethoxy)phenyl)-5-methyl-4-morpholinyl)methanone and ((3R)-4-amino-3-methyl-1,3-dihydrofuro[3,4-c]quinolin-8-yl)((3S,5R)-3-(2-fluoro-4-(trifluoromethoxy)phenyl)-5-methyl-4-morpholinyl)methanone] are 50 nM and 1520 nM.
With `C[C@@H]1COC[C@H](c2ccc(C(F)(F)F)cc2F)N1C(=O)c1ccc2nc(N)c3c(c2c1)COC3` (racemic) [Example 333, (4-amino-1,3-dihydrofuro[3,4-c]quinolin-8-yl)((3R,5S)-3-(2-fluoro-4-(trifluoromethyl)phenyl)-5-methyl-4-morpholinyl)methanone and (4-amino-1,3-dihydrofuro[3,4-c]quinolin-8-yl)((3S,5R)-3-(2-fluoro-4-(trifluoromethyl)phenyl)-5-methyl-4-morpholinyl)methanone], the IC50 is 58 nM in experiment [1] and 1440 nM in experiment [2].
With `C[C@H]1COC[C@@H](c2ccc(C(F)(F)F)cc2F)N1C(=O)c1cc2c3c(c(N)nc2cn1)COC3` (racemic) [Example 334, (4-amino-1,3-dihydrofuro[3,4-c][1,7]naphthyridin-8-yl)((3R,5S)-3-(2-fluoro-4-(trifluoromethyl)phenyl)-5-methyl-4-morpholinyl)methanone and (4-amino-1,3-dihydrofuro[3,4-c][1,7]naphthyridin-8-yl)((3S,5R)-3-(2-fluoro-4-(trifluoromethyl)phenyl)-5-methyl-4-morpholinyl)methanone], the IC50 came out at 27 nM in experiment [1] (HCT116-MTAP null, 144 h) and 706 nM in experiment [2] (Homo sapiens, HCT-116, 144 h).
`C[C@H]1OCc2c1c(N)nc1cnc(C(=O)N3CCOC[C@@H]3c3ccc(C(F)(F)F)cc3)cc21` (racemic) [Example 338, ((3R)-4-amino-3-methyl-1,3-dihydrofuro[3,4-c][1,7]naphthyridin-8-yl)((3S)-3-(4-(trifluoromethyl)phenyl)-4-morpholinyl)methanone and ((3S)-((4-amino-3-methyl-1,3-dihydrofuro[3,4-c][1,7]naphthyridin-8-yl)((3S)-3-(4-(trifluoromethyl)phenyl)-4-morpholinyl)methanone]: the IC50 in experiment [1] (HCT116-MTAP null, 144 h) amounted to 100 nM; in experiment [2] (Homo sapiens, HCT-116, 144 h), 5020 nM.
On the same counts, the results for `C[C@H]1COC[C@@H](c2ccc(C(F)(F)F)cn2)N1C(=O)c1cc2c3c(c(N)nc2cn1)COC3` (racemic) [Example 339, (4-amino-1,3-dihydrofuro[3,4-c][1,7]naphthyridin-8-yl)((3R,5S)-3-methyl-5-(5-(trifluoromethyl)-2-pyridinyl)-4-morpholinyl)methanone and (4-amino-1,3-dihydrofuro[3,4-c][1,7]naphthyridin-8-yl)((3S,5R)-3-methyl-5-(5-(trifluoromethyl)-2-pyridinyl)-4-morpholinyl)methanone] are 20 nM and 497 nM.

One may read the IC50 as the concentration that gives 50% inhibition.
